A short description of this data set: Measurement of Log P values by HPLC on reversed phase columns (EEC directive 79/831 Annex V.A8), methods [a], [b], [c]. It counts as physicochemical. The following applies: for chromatographic logP: reversed-phase HPLC column.
Where [1] appears, read: method [a]: LC-UV, acidic range, 0.1% formic acid in water and acetonitrile as eluent (10% to 95% acetonitrile), Table 3, compounds of formula (1).
Setting [2] is: method [a]: LC-UV, acidic range, 0.1% formic acid in water and acetonitrile as eluent, Table 5, compounds of formula (2).
Setting [3] is: HPLC on reversed phase column, method [a].
The mark [4] stands for this setting: method [b]: LC-UV, neutral range, 0.001 molar ammonium acetate solution in water and acetonitrile as eluent (10% to 95% acetonitrile), Table 3, compounds of formula (1).

Experimental: Measurement of Log P values as provided herein was performed according to EEC directive 79/831 Annex V.A8 by HPLC (High Performance Liquid Chromatography) on reversed phase columns with the following methods: • ^[a]

Regarding `Cc1ccc(C(F)(F)CNC(=O)c2c(Oc3cccc(C(F)(F)F)c3)nnc(Cl)c2NC2CC2C2CC2)c(C)c1` (mixture of isomers) [I-812], the LogP (method [a]) is 4.87^[a]. For the compound `Cc1c(Cl)nnc(Oc2cccc(C3CC3(F)F)c2)c1C(=O)O` (racemic) [Compound 1-105], the LogP under setting [1] is 1.69^[a].

With `NCC(F)c1ccc(I)cc1` (racemic) [Compound 2-05], the LogP under setting [2] was 0.73^[a].

For the compound `Cc1cc(C(F)F)ccc1C(F)CN` (racemic) [Compound 2-06], the LogP under setting [2] is 0.69^[a]. As for `NCC(F)c1ccc(C2CC2)cc1Cl` (racemic) [Compound 2-07], the LogP under setting [2] is 1.15^[a].

Take `O=C(NC1CCCc2ccsc21)c1cc(Cl)nnc1Cl` (racemic) [Compound 3-16]: the LogP (method [a]) was 2.60^[a]. The same measure, in the same setting: under `CC(NC(=O)c1cc(Cl)nnc1Cl)c1cn(C)c2ccccc12` (racemic) [Compound 3-18] stands 2.71^[a]. Still for that read-out and setting: under `Cc1ccc(C(F)CNC(=O)c2c(Cl)nnc(Cl)c2C)c(Cl)c1` (racemic) [Compound 3-23] stands 3.22^[a].

The compound `CC(=O)c1cc(C(=O)NCC(F)c2ccc(Br)cc2Cl)c(Oc2cccc(C(F)(F)F)c2)nn1` (racemic) [Compound I-605, 6-acetyl-N-[rac-2-(4-bromo-2-chloro-phenyl)-2-fluoro-ethyl]-3-[3-(trifluoromethyl)phenoxy]pyridazine-4-carboxamide] yielded a chromatographic logP (method [a]) of 4.49. As for `Cc1cc(C(=O)NC2CCOc3c(C)cccc32)c(Oc2cccc(C(F)(F)F)c2)nn1` (racemic) [I-107], the LogP under setting [3] was 3.65^[a]. Turning to `O=C(NCC(F)c1ccc(Br)cc1Cl)c1cc(Cl)nnc1Oc1cccc(C2CC2)c1` (racemic) [I-362], the LogP (HPLC method [a]) was 4.87^[a]. Same read-out and setting: under `Cc1nnc(Oc2cccc(C(F)F)c2F)c(C(=O)NCC(F)c2ccc(Br)cc2Cl)c1C` (racemic) [I-369] stands 3.65^[a]. Regarding `O=C(NCC1CNc2ccccc21)c1cc(Cl)nnc1Oc1cccc(C(F)(F)F)c1` (racemic) [I-436], the LogP (method [a]) was 2.42^[a]. With `O=C(NC1CCCc2sc(Cl)cc21)c1cc(Cl)nnc1Oc1cccc(C(F)(F)F)c1` (racemic) [I-639], under “method [a]”, the LogP is 4.68^[a]. As to `Cc1ccc(C(F)(F)CNC(=O)c2c(Oc3cccc(C(F)(F)F)c3)nnc(Cl)c2OCC2CC2(F)F)c(C)c1` (racemic) [I-683], under “method [a]”, the LogP was 4.95^[a].

As to `O=C(NCC(F)c1ccc(Cl)cc1Cl)c1c(Oc2cccc(C3CC3)c2F)nnc(Cl)c1I` (racemic) [I-758], the LogP (method [a]) was 4.73^[a]. The same measure, in the same setting: in the case of `Cc1ccc(C(F)(F)CNC(=O)c2cc([S+](C)[O-])nnc2Oc2cccc(C(F)(F)F)c2)c(C)c1` (racemic) [I-781] it was 3.65^[a]. Take `O=C(NCC(F)c1ccc(Cl)cc1Cl)c1c(Oc2cccc(C3CC3)c2F)nnc(Cl)c1O` (racemic) [I-782]: the LogP (method [a]) is 5.13^[a]. Still for that read-out and setting: under `Cc1ccc(C(F)(F)CNC(=O)c2cc(C3CCOC3)nnc2Oc2cccc(C(F)(F)F)c2)c(C)c1` (racemic) [I-794] stands 3.78^[a].

Consider `Cc1ccc(C(F)CNC(=O)c2c(Oc3cccc(C4CC4)c3F)nnc(C)c2C)c(C)c1` (racemic) [I-836], for which, under setting [3], the LogP was 3.78^[a].

Under setting [1], `COC(=O)c1c(Oc2cccc(C(F)(F)F)c2)nnc(Cl)c1C1CC1` [Compound 1-001] gave a chromatographic logP of 3.94.

Regarding `Cc1c(Cl)nnc(Oc2cccc(Cl)c2)c1C(=O)O` [Compound 1-002, 6-chloro-3-(3-chlorophenoxy)-5-methyl-pyridazine-4-carboxylic acid], the chromatographic logP under setting [1] stood at 1.39. The same measure, in the same setting: under `CSc1cc(C(=O)O)c(Oc2cccc(C(F)(F)F)c2)nn1` [Compound 1-004, 6-methylsulfanyl-3-[3-(trifluoromethyl)phenoxy]pyridazine-4-carboxylic acid] stands 2.25. Take `Cc1c(Cl)nnc(Oc2cccc(C3CC3)c2F)c1C(=O)O` [Compound 1-005]: the LogP under setting [1] was 1.84^[a]. `COC(=O)c1c(Oc2cccc(C(F)F)c2F)nnc(C)c1C` [Compound 1-006]: the chromatographic logP under setting [1] was determined as 2.64. As for `N#Cc1cc(C(=O)O)c(Oc2cccc(C(F)(F)F)c2)nn1` [Compound 1-007], the LogP under setting [1] was 1.74^[a]. Turning to `Cc1nnc(Oc2cccc(C(F)(F)F)c2F)c(C(=O)O)c1C` [Compound 1-009], the LogP under setting [1] is 1.40^[a]. Regarding `CC(C)OC(=O)c1cc(Cl)nnc1Oc1cccc(F)c1F` [Compound 1-011], the LogP under setting [1] is 3.65^[a]. On to `O=C(O)c1cc(C2CC2)nnc1Oc1cccc(C(F)F)c1` [Compound 1-012], for which the LogP under setting [1] is 1.68^[a]. `Cc1nnc(Oc2cccc(C(F)F)c2F)c(C(=O)O)c1C` [Compound 1-013]: the LogP under setting [1] was 0.96^[a].

Turning to `C#Cc1cccc(Oc2nnc(Cl)cc2C(=O)O)c1` [Compound 1-017], the LogP under setting [1] is 1.50^[a]. In the case of `Cc1nnc(Oc2cccc(Cl)c2)c(C(=O)O)c1C` [Compound 1-018], under setting [1], the LogP was 0.80^[a]. `Cc1cc(C(=O)O)c(Oc2cncc(C(F)(F)F)c2)nn1` [Compound 1-019]: under setting [1], the LogP is 1.01^[a]. In the case of `O=C(O)c1cc(-c2ccncc2Cl)nnc1Oc1cccc(C(F)F)c1F` [Compound 1-020], the LogP under setting [1] was 1.86^[a]. On to `O=C(O)c1cc(N2CCCC2)nnc1Oc1cccc(C(F)(F)F)c1` [Compound 1-021], for which the LogP under setting [1] was 1.08^[a]. Take `O=C(O)c1cc(Cl)nnc1Oc1cccc(F)c1F` [Compound 1-024]: under setting [1], the LogP was 1.65^[a]. The same measure, in the same setting: under `O=C(O)c1cc(Cl)nnc1Oc1cncc(C(F)(F)F)c1` [Compound 1-025] stands 1.31^[a]. As for `COCCc1c(Cl)nnc(Oc2cccc(C(F)(F)F)c2)c1C(=O)O` [Compound 1-026, 6-chloro-5-(2-methoxyethyl)-3-[3-(trifluoromethyl)phenoxy]pyridazine-4-carboxylic acid], the chromatographic logP under setting [1] worked out at 1.74. For the compound `O=C(O)c1cc(Cl)nnc1Oc1cccc(C(F)(F)F)n1` [Compound 1-031], the LogP under setting [4] was 0.69^[b]. Regarding `COC(=O)c1c(Oc2cccc(Cl)c2)nnc(Cl)c1C` [Compound 1-033, methyl 6-chloro-3-(3-chlorophenoxy)-5-methyl-pyridazine-4-carboxylate], under setting [1], the chromatographic logP was determined as 3.37. Still for that read-out and setting: under `CCOC(=O)c1cc(C)nnc1Oc1cncc(C(F)(F)F)c1` [Compound 1-036] stands 2.37. For the compound `Cc1nnc(Oc2cccc(C3CC3)c2)c(C(=O)O)c1C` [Compound 1-037], the LogP under setting [1] is 1.10^[a]. On to `COC(=O)c1c(Oc2cccc(Cl)c2)nnc(C)c1C` [Compound 1-042], for which the chromatographic logP under setting [1] was found to be 2.71.

Consider `O=C(O)c1cc(C2CC2)nnc1Oc1cccc(C(F)(F)F)c1` [Compound 1-043], for which the LogP under setting [1] was 1.90^[a]. With `COC(=O)c1c(Oc2cccc(C(F)(F)F)c2)nnc(Cl)c1OC` [Compound 1-046], under setting [1], the chromatographic logP came to 3.52. As to `O=C(O)c1cc(Cl)nnc1Oc1cccc(Br)c1` [Compound 1-048], under setting [1], the LogP is 1.66^[a].

The compound `COC(=O)c1c(Oc2cccc(C(F)(F)F)c2)nnc(Cl)c1Cl` [Compound 1-049] returned a chromatographic logP under setting [1] of 3.86. Consider `CC(C)OC(=O)c1cc(-n2ccnc2)nnc1Oc1cccc(C(F)(F)F)c1` [Compound 1-050], for which the LogP under setting [1] is 2.55^[a].

With `O=C(O)c1cc(Cl)nnc1Oc1cncc(C2CC2)c1` [Compound 1-051], the LogP under setting [4] is 0.59^[b].

(Values after patent US20230165252A1, “ACTIVE COMPOUND COMBINATIONS” (Bayer Aktiengesellschaft, priority 2020, published 2023).)
